In ChEMBL document CHEMBL5038628, “Discovery of spiro amide SHR902275: A potent, selective, and efficacious RAF inhibitor targeting RAS mutant cancers” (Eur J Med Chem, 2022):
Converted amounts (≈) assume the structure as drawn.

Experiments:
[1] = tested on: NCI-H358; assay: Cytotoxicity against human NCI-H358 cells assessed as inhibition of growth measured after 72 hrs by CellTiter-Glo luciferase assay; type: functional
[2] = target: RAF proto-oncogene serine/threonine-protein kinase (Homo sapiens, UniProt P04049); assay: Inhibition of human recombinant cRAF measured after 60 mins by TR-FRET assay
RAF proto-oncogene serine/threonine-protein kinase, sequence (P04049 whole entry): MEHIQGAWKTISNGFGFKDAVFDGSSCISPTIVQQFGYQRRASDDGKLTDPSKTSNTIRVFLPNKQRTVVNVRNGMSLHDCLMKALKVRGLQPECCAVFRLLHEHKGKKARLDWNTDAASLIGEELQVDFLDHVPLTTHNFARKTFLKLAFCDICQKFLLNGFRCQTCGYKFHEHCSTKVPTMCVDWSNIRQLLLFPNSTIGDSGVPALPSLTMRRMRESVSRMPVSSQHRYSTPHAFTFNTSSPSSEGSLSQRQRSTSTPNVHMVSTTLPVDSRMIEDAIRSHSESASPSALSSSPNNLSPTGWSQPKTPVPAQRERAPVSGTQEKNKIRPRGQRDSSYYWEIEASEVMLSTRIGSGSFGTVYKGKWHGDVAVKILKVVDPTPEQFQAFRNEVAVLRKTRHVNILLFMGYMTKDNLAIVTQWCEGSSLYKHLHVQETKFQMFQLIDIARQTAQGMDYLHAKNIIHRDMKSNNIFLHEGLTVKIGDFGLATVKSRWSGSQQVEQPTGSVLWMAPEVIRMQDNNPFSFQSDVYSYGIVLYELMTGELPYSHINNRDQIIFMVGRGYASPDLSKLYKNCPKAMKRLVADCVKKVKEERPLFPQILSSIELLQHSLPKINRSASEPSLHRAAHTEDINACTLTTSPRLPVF

[3] = AUC (0 to t) in Sprague-Dawley rat plasma at 2 mg/kg, IG by LC-MS/MS analysis; type: ADME, organism-based; design: dose 2 mg/kg; settings: Sprague-Dawley, plasma, po
[4] = Clearance in Sprague-Dawley rat plasma at 1 mg/kg, iv by LC-MS/MS analysis; type: ADME, organism-based
[5] = Cmax in Sprague-Dawley rat plasma at 2 mg/kg, IG by LC-MS/MS analysis; type: ADME, organism-based; design: route […], dose 2 mg/kg; settings: po
[6] = Oral bioavailability in Sprague-Dawley rat by LC-MS/MS analysis; type: ADME, organism-based; settings: Sprague-Dawley, in vivo
[7] = Solubility of the compound at pH 7.4; settings: buffer
[8] = Metabolic stability in human liver microsomes assessed as half life; type: ADME, Microsome
[9] = Half life in Sprague-Dawley rat plasma at 1 mg/kg, iv by LC-MS/MS analysis; type: ADME, organism-based; settings: for half-life: Sprague-Dawley, plasma; for t1/2: in vivo, 1 mg/kg
[10] = MRT (0 to infinity) in Sprague-Dawley rat plasma at 1 mg/kg, iv by LC-MS/MS analysis; type: ADME, organism-based; settings: in vivo
[11] = AUC (0 to t) in Sprague-Dawley rat plasma at 1 mg/kg, iv by LC-MS/MS analysis; type: ADME, organism-based; design: dose 1 mg/kg
[12] = tested on: Calu-6; assay: Antitumor activity against human Calu-6 cells xenografted in nude mouse assessed as tumor growth inhibition at 30 mg/kg,IT QD for 12 days relative to control; type: functional; settings: Calu-6, 288 h, time 12 day, read-out: TGI

Row | Compound | GI50 [1] [nM] | IC50 [2] [nM] | solubility [7] [µM] | also measured
1 | Cc1ccc(NC(=O)c2ccnc(C(F)(F)F)c2)cc1-c1ccc2c(c1)OC1(CCOCC1)CN(CCN(C)C)C2=O | 7600 | 13 | – | –
2 | Cc1ccc(NC(=O)c2ccnc(C(F)(F)F)c2)cc1-c1ccc2c(c1)OC1(CCOCC1)CN(CCO)C2=O | 3200 | 1.3 | 311 (≈ 173 µg/mL) | AUC(0-t) [3]: 29 ng·h/mL; clearance [4]: 40.4 mL/min/kg; Cmax [5]: 5.9 ng/mL; bioavailability [6]: 3.47%
3 | Cc1ccc(NC(=O)c2cc(C(F)(F)F)cnn2)cc1-c1ccc2c(c1)OC1(CCOCC1)CC(=O)N2C | 1300 | 3.9 | 2.3 (≈ 1.21 µg/mL) | half-life [8]: 4.6 min
4 | Cc1ccc(NC(=O)c2ccnc(C(F)(F)F)n2)cc1-c1ccc2c(c1)OC1(CCOCC1)CC(=O)N2 | 12000 | 334 | – | –
5 | Cc1ccc(NC(=O)c2cc(C(F)(F)F)nn2C)cc1-c1ccc2c(c1)OC1(CCOCC1)CC(=O)N2 | 13000 | 28 | – | –
6 | COc1ccc(NC(=O)c2ccnc(C(F)(F)F)c2)cc1-c1ccc2c(c1)OC1(CCOCC1)CC(=O)N2 | 5900 | 3.6 | – | –
7 | Cc1ccc(NC(=O)c2ccnc(C(F)(F)F)c2)cc1-c1ccc2c(c1)OC1(CCOCC1)CN(CC(C)(C)O)C2=O | 6200 | 34 | – | –
8 | Cc1ccc(NC(=O)c2cccc(C(F)(F)F)n2)cc1-c1ccc2c(c1)OC1(CCOCC1)CC(=O)N2 | 6800 | 19.7 | – | –
9 | Cc1ccc(NC(=O)c2cnnc(C(F)(F)F)c2)cc1-c1ccc2c(c1)OC1(CCOCC1)CC(=O)N2 | 2000 | 3.2 | 0.44 (≈ 0.225 µg/mL) | AUC(0-t) [3]: 176 ng·h/mL; half-life [9]: 90 min; clearance [4]: 16.1 mL/min/kg; Cmax [5]: 40 ng/mL; bioavailability [6]: 9.2%
10 | Cc1ccc(NC(=O)c2ccnc(C(F)(F)F)c2)cc1-c1ccc2c(c1)OC1(CCN2)CCOCC1 | 13000 | 5.4 | – | –
11 | Cc1cc(F)c(NC(=O)Cc2ccnc(C(F)(F)F)c2)cc1-c1ccc2c(c1)OC1(CCOCC1)CC(=O)N2 | 9400 | 3.2 | – | –
12 | Cc1ccc(NC(=O)c2ccnc(C(F)(F)F)c2)cc1-c1ccc2c(c1)OC1(CCOCC1)CC(=O)N2CCO | 4700 | 0.83 | – | –
13 | Cc1ccc(NC(=O)c2nccc(C(F)(F)F)n2)cc1-c1ccc2c(c1)OC1(CCOCC1)CC(=O)N2 | 2300 | 2 | 1.4 (≈ 0.717 µg/mL) | –
14 | Cc1ccc(C(=O)Nc2ccnc(C(F)(F)F)c2)cc1-c1ccc2c(c1)OC1(CCOCC1)CC(=O)N2 | 8600 | 21 | – | –
15 | Cc1cc(F)c(NC(=O)Nc2ccnc(C(F)(F)F)c2)cc1-c1ccc2c(c1)OC1(CCOCC1)CC(=O)N2 | 200 | 6.7 | – | MRT [10]: 11.4 min; AUC(0-t) [11]: 154 ng·h/mL; t1/2 [9]: 22.2 min; clearance [4]: 120 mL/min/kg
16 | Cc1ccc(NC(=O)c2ccnc(C(F)(F)F)c2)cc1-c1ccc2c(c1)OC1(CCOCC1)CCO2 | 8500 | 32 | – | –
17 | Cc1ccc(NC(=O)C2CCNC(C(F)(F)F)C2)cc1-c1ccc2c(c1)OC1(CCOCC1)CC(=O)N2 (configuration not stated) | > 30000 | 3.3 | – | –
18 | Cc1ccc(NC(=O)c2cc(C(F)(F)F)ccn2)cc1-c1ccc2c(c1)OC1(CCOCC1)CC(=O)N2 | 2900 | 11.3 | 1.4 (≈ 0.716 µg/mL) | –
19 | Cc1ccc(NC(=O)c2cc(C(F)(F)F)ncn2)cc1-c1ccc2c(c1)OC1(CCOCC1)CC(=O)N2 | 2700 | 5.5 | 0.35 (≈ 0.179 µg/mL) | –
20 | Cc1ccc(NC(=O)c2cncc(C(F)(F)F)n2)cc1-c1ccc2c(c1)OC1(CCOCC1)CC(=O)N2 | 5200 | 3.3 | – | –
21 | Cc1ccc(NC(=O)N2CCCC(C(F)(F)F)C2)cc1-c1ccc2c(c1)OC1(CCOCC1)CC(=O)N2 (configuration not stated) | 5500 | 13 | – | –
22 | Cc1ccc(NC(=O)c2ccnc(C(F)(F)F)c2)cc1-c1ccc2c(c1)OC1(CCOCC1)CC(=O)N2C | 7100 | 4.5 | – | –

Row | Compound | GI50 [1] [nM] | IC50 [2] [nM] | solubility [7] [µM] | also measured
23 | Cc1ccc(NC(=O)c2ccnc(C(F)(F)F)c2)nc1-c1ccc2c(c1)OC1(CCOCC1)CC(=O)N2 | > 30000 | 2.2 | – | –
24 | Cc1ccc(-c2nnc(-c3ccnc(C(F)(F)F)c3)[nH]2)cc1-c1ccc2c(c1)OC1(CCOCC1)CC(=O)N2 | 2500 | 48 | – | AUC(0-t) [3]: 38.6 ng·h/mL; MRT [10]: 155 min; AUC(0-t) [11]: 999 ng·h/mL; t1/2 [9]: 227 min; clearance [4]: 17.1 mL/min/kg; bioavailability [6]: 2.16%
25 | Cc1cnc(NC(=O)c2ccnc(C(F)(F)F)c2)cc1-c1ccc2c(c1)OC1(CCOCC1)CC(=O)N2 | 3800 | 1.8 | – | –
26 | Cc1ccc(NC(=O)c2ccnc(C(F)(F)F)c2)cc1-c1cc(OCCO)nc(N2CCOCC2)c1 [NAPORAFENIB] | 3000 | 8.6 | 26 (≈ 13.1 µg/mL) | inhibition in vivo at 30 mg/kg [12]: 67%
27 | Cc1ccc(NC(=O)c2cc(OCCO)nc(C(F)(F)F)c2)cc1-c1ccc2c(c1)OC1(CCOCC1)CC(=O)N2 | 4300 | 26 | – | –
28 | O=C1CC2(CCOCC2)Oc2cc(-c3cc(NC(=O)c4ccnc(C(F)(F)F)c4)ccc3CO)ccc2N1 | 21000 | 3.5 | – | –
29 | Cc1ccc(NC(=O)c2ccnc(C(F)(F)F)c2)cc1-c1ccc2c(c1)OC1(CCOCC1)CN(C)C2=O | 2900 | 1.3 | 8.5 (≈ 4.47 µg/mL) | –
30 | Cc1ccc(NS(=O)(=O)c2ccnc(C(F)(F)F)c2)cc1-c1ccc2c(c1)OC1(CCOCC1)CC(=O)N2 | > 30000 | 32 | – | –
31 | Cc1cc(F)c(NC(=O)N(C)c2ccnc(C(F)(F)F)c2)cc1-c1ccc2c(c1)OC1(CCOCC1)CC(=O)N2 | 9400 | 4.7 | – | –
32 | Cc1ccc(NC(=O)c2ccnc(OC(F)F)c2)cc1-c1ccc2c(c1)OC1(CCOCC1)CC(=O)N2 | 900 | 4.1 | 0.16 (≈ 0.0815 µg/mL) | AUC(0-t) [3]: 455 ng·h/mL; half-life [9]: 90 min; clearance [4]: 16.7 mL/min/kg; Cmax [5]: 107 ng/mL; bioavailability [6]: 22%
33 | Cc1ccc(NC(=O)c2cc(OC3CC3)cnn2)cc1-c1ccc2c(c1)OC1(CCOCC1)CC(=O)N2 | 1900 | 3.4 | – | half-life [8]: 6.8 min
34 | COc1nnc(C(=O)Nc2ccc(C)c(-c3ccc4c(c3)OC3(CCOCC3)CC(=O)N4)c2)cc1C(F)(F)F | 2600 | 22 | 3.6 (≈ 1.95 µg/mL) | half-life [8]: 57 min
35 | Cc1ccc(NC(=O)c2cc(OCCO)nc(OC(F)F)c2)cc1-c1ccc2c(c1)OC1(CCOCC1)CC(=O)N2 | 2000 | 9.2 | 0.41 (≈ 0.234 µg/mL) | –
36 | Cc1ccc(NC(=O)c2ccnc(C(F)(F)F)c2)cc1-c1ccc2c(c1)OC1(CCOCC1)CNC2=O | 2900 | 3.6 | 10.4 (≈ 5.32 µg/mL) | AUC(0-t) [3]: 41.3 ng·h/mL; Cmax [5]: 7.7 ng/mL
37 | Cc1ccc(NC(=O)c2cc(C(F)(F)F)cnn2)cc1-c1ccc2c(c1)OC1(CCOCC1)CC(=O)N2CCO | 2600 | 2.6 | – | half-life [8]: 11 min
38 | Cc1ccc(NC(=O)c2cncc(C(F)(F)F)c2)cc1-c1ccc2c(c1)OC1(CCOCC1)CC(=O)N2 | 1600 | 5.4 | 0.06 (≈ 0.0307 µg/mL) | –
39 | Cc1ccc(NC(=O)c2ccnc(C3CC3)c2)cc1-c1ccc2c(c1)OC1(CCOCC1)CC(=O)N2 | 2500 | 7.1 | 0.61 (≈ 0.295 µg/mL) | –
40 | Cc1ccc(NC(=O)c2ccc(C(F)(F)F)s2)cc1-c1ccc2c(c1)OC1(CCOCC1)CC(=O)N2 | 3400 | 69 | – | –
41 | Cc1ccc(NC(=O)c2cc(C(F)F)cnn2)cc1-c1ccc2c(c1)OC1(CCOCC1)CC(=O)N2 | 3900 | 0.8 | 7 (≈ 3.46 µg/mL) | –
42 | Cc1ccc(NC(=O)c2ccnc(C(F)(F)F)c2)cc1-c1ccc2c(c1)OC1(CCOCC1)CNC2 | 15000 | 4.3 | – | –
43 | Cc1ncc(NC(=O)c2ccnc(C(F)(F)F)c2)cc1-c1ccc2c(c1)OC1(CCOCC1)CC(=O)N2 | 6300 | 5 | – | –
